Measured values: patent publication US4876265A, “Process and compositions for controlling mites parasitizing on honey bees” (priority 1983, dated 1989)

Legend:
honey bees = test: Package bee colonies, brood production and food consumption; type: in vivo, honey bee; conditions: 0.5 mg/ml and 1.0 mg/ml; more pronounced at the higher concentration
Method: (§1) Forty-two packages of honey bees (2 lbs.~907 g) are obtained from 22 colonies infested with Acarapis woodi. Infestations range from 60 to 100%. Each package is provided with a mated queen and 550 ml of treated or untreated 50% (wt/wt) sucrose syrup. All treated colonies receive syrup containing either 0.5 mg/ml (group B) or 1.0 mg/ml (group C) of 2-(2,4-dimethylphenylimino)-3-methyl-4-thiazoline hydrochloride. The control (group A) consists of 10 packages of bees and the treatment groups B and C of 16 packages each.
(§2) After installation on frames free of nectar and pollen, package colonies are examined at weekly intervals to determine food consumption, brood production and bee mortality. Random samples of ten bees/colony are examined on days 5, 12, 19, 26, 33 and 40. On day 0 and 5 bees are examined. Dissections and live mite determinations are made according to Eischen et al. (Am. Bee J. 127: 99-101, 1987).

honey-bee colonies = test: Honey-bee colonies in northeastern Mexico, bee population; type: in vivo; conditions: end of the test; P<0.05
Method: (§3) Three groups of honey-bee colonies (N=30) located in northeastern Mexico are selected on the basis of the prevalence of Acarapis woodi parasitizing their workers. Lightly (≤10%), moderately (20-60%), and heavily (90-100%) infested colonies are randomly assigned to control or treated subgroups (N=15). Controls receive 50% sucrose syrup, and treated colonies receive syrup medicated with 0.3 mg/ml 2-(2,4-dimethylphenylimino)-3-methyl-4-thiazoline-hydrochloride, small, medium, and large colonies receive 300, 600, and 1000 ml of syrup, respectively. Syrup is fed three times at weekly intervals.

Acarapis woodi [1] = test: Package bee colonies infested with Acarapis woodi, mite survival; type: in vivo
Method: as §1, §2

Acarapis woodi [2] = test: Honey-bee colonies in northeastern Mexico, parasite load; type: in vivo; conditions: 0.3 mg/ml in syrup, three times weekly, P<0.05
Method: as §3

Varroa jacobsoni [3] = test: Comparative test, lethal dosage for varroa mites; type: in vivo; conditions: for LD50 in μg active ingredient/bee: oral, 10 μl sucrose suspension
Excerpt: Compounds (I), (A) and (B) are formulated in accordance with Example F-1.
The age distribution of the bees in the test group is identical with that in a normal hive. The bees used in the laboratory tests originate from colonies only slightly infested with nosema. All groups of bees are infected with varroatosis (Varroa jacobsoni). To test the tolerance by the bees and the acaricidal activity in the group, 40 bees from the same colony are placed with their brood in each cage. To achieve a better control, each cage is fitted with a pane of glass. A small piece of honeycomb (6×8 cm) is attached at the top of each cage to pacify the bees. During the test period, the bees are kept in a climatic chamber at 25° C. and 85% relative humidity. These conditions are chosen because they are maximally acceptable both for the mites and the bees: the parasitizing mites are least affected and the bees live sufficiently long. To test the systemic activity of the active substance, 4 bees--within a group of 40 bees--are each individually fed with 10 μl of a suspension of the active substance in a 50% aqueous solution of sucrose. The bees have not been fed for at least one hour so that feed with a higher dose can be more readily ingested. 3 to 4 doses are tested in each of 2 groups. In each test series, 2 groups are left untreated as controls.
24 and 48 hours after treatment, the activity on varroa mites is determined on the basis of mite mortality. For this purpose a tray (mesh width=2.4 mm) is fixed above the floor of each of the test cages. The mites which have dropped off the bees can thus be collected on paper which had been placed under the tray. 72 hours after treatment, the bees are sacrificed and then washed in benzine to determine the number of mites which have remained on them (method of determining the number of remaining mites according to Ritter, Apidologie, 1980, 11(2), 131-141).
Percentage mite mortality can be determined from the number of mites which have remained on the bees and the number which have dropped off. Using the Probit analysis (Cavalli-Sforza, Biometrie, G. Frischer Verlag, Stuttgart), the LD50 can be determined from the dosage-mortality curve.

Varroa jacobsoni [4] = conditions: Thailand, 10 colonies each, four products; manufacturers' dose rates for Varroa-mite-treatment; cited from earlier work
bees [5] = test: Tests under natural conditions, bee mortality rate; type: in vivo, honey bee; conditions: overall; in the range of the untreated control group; 30240 min
Excerpt: 33 brood-less bee colonies (~20,000 bees) infested with varroa mites are divided into three groups and treated with 2-(2,4-dimethylphenylimino)-3-methylthiazoline in solutions of varying concentration, originating in one case from a 15% emulsion concentrate (EC-15) and in the other case from a 15% water-soluble powder (SP-15). In the latter case, the active ingredient I is in the form of a salt (cf. Formulation Examples).
All three groups A, B and C, each consisting of 11 colonies, receive during the time of treatment the same total amount of active ingredient.
In the following the applied amounts per bee way are given. Depending on the size of the bee colony, a beehive contains between 5 and 15 bee ways, so that the amount of active ingredient applied is correspondingly adjusted from hive to hive.
In each case 5 ml of a 4% aqueous solution or emulsion per bee way are sprayed onto a number of selected bees. The remaining bees provide for a uniform distribution of the active ingredient in the colony. The partial wetting procedure is repeated after 7 days and after 14 days (observation period 21 days). […]
The mites and bees that have died during and after the treatment are collected daily from a bottom tray. 21 days after the first application, the bee colonies are killed and the remaining number of mites is then determined (observation period 21 days).

Tropilaelaps clareae = conditions: Thailand, 10 colonies each, four products; dose rates proposed for Varroa-mite-treatment; cited from earlier work
bees [6] = test: Wetting method in the beehive, bees killed (tolerability); type: in vivo, honey bee
Method: (§4) Six brood-less nuclei [small, manmade colonies of bees with usually 1000 to perhaps 5000 bees; see Morse and Hooper (1985), supra, Nucleus colony, p. 279] infested with varroa mites are treated three times, at intervals of 4 days, with a 0.5% aqueous solution of 2-(2,4-dimethylphenylimino)-3-methylthiazoline. The active substance is dissolved in the form of a concentrate formulation in water. 5 ml of the active substance solution are dropped onto a number of bees present in the bee ways of a beehive. The test is terminated 4 days after the last treatment, that is after a duration of 12 days. The mites and bees which have died in the course of the test are collected on a bottom tray covered with gauze, which has been inserted under the combs before commencement of the test. At the end of the test, the bees are killed, and the mites remaining on them are washed out in benzine and counted. For the evaluation, the number of dead mites and bees collected during the test is determined, the fact being taken into consideration that for the length of time of the test a natural mortality rate of about 0.5% of bees is to be expected.

varroa mites [7] = test: Wetting method in the beehive, mites killed; type: in vivo; conditions: 0.5% aqueous solution, 5 ml dropped, three times at 4-day intervals; 12 days
Method: as §4

varroa mites [8] = test: Feeding method in the laboratory, varroa mite mortality; type: in vivo; conditions: 7 days
Method: Thirty bees infested with varroa mites are each individually fed with 10 μl of a sugar-containing solution of 2-(2,4-dimethylphenylimino)-3-methylthiazoline. […] After being fed, the bees are kept in groups each of 10 for 7 days in cages. The mites which in the course of the test have fallen off dead are collected in trays placed under the individual cages. The bees are subsequently killed and are examined for remaining mites. The counting of the mites that have fallen down and those remaining on the bees is carried out after 7 days.

In the case of `Cc1ccc(N=c2sccn2C)c(C)c1.Cl` [2-(2,4-dimethylphenylimino)-3-methyl-4-thiazoline hydrochloride], the “effect on honey bee larvae (spotty brood patterns)” value (honey bees) is reported as “detrimental to some honey bee larvae as spotty brood patterns are observed in several colonies”, the “bee population of medicated colonies versus controls” value (honey-bee colonies) is reported as “significantly larger bee populations than controls” and the “time at which efficacy is apparent” value (Acarapis woodi [1]; 0.5 mg/ml and 1.0 mg/ml in syrup) is reported as 7 days. The control of mites (Acarapis woodi [1]; after 26 days) was “almost complete control of mites”, the Mite survival (Acarapis woodi [1]; groups B (0.5 mg/ml) and C (1.0 mg/ml) in syrup, after 14 days) was “less than 1 live mite/trachea” and the “live mites found in the tracheae of treated package bees” value (Acarapis woodi [1]; groups B (0.5 mg/ml) and C (1.0 mg/ml), after 26 days) was “no live mites”. For the same compound, the parasite load score (Acarapis woodi [2]; heavily infested (90-100%), control 1.13) was 0.63, the parasite load score (Acarapis woodi [2]; lightly infested (≤10%), control 2.25) was 0.53 and the parasite load score (Acarapis woodi [2]; moderately infested (20-60%), control 3.43) was 0.84.

For `CCn1ccsc1=Nc1ccc(C)cc1C` [Compound (A)], the “LD50 in μg active ingredient/bee” value (Varroa jacobsoni [3]; 24 hours after application) was 35 μg active ingredient/bee and the “LD50 in μg active ingredient/bee” value (Varroa jacobsoni [3]; 48 hours after application) was 35 μg active ingredient/bee.

In the case of `Cc1cccc(C)c1N=c1sccn1C` [Compound (B)], the “LD50 in μg active ingredient/bee” value (Varroa jacobsoni [3]; 24 hours after application) is reported as 28 μg active ingredient/bee and the “LD50 in μg active ingredient/bee” value (Varroa jacobsoni [3]; 48 hours after application) is reported as 28 μg active ingredient/bee.

For `Cc1ccc(N=c2sccn2C)c(C)c1` [Compound (I), 2-(2,4-dimethylphenylimino)-3-methylthiazoline], the “comparative efficacy against Varroa jacobsoni” value (Varroa jacobsoni [4]) is listed as “best product against both mites”, the “LD50 in μg active ingredient/bee” value (Varroa jacobsoni [3]; 24 hours after application) is listed as 17 μg active ingredient/bee and the “LD50 in μg active ingredient/bee” value (Varroa jacobsoni [3]; 48 hours after application) is listed as 13 μg active ingredient/bee. For the same compound, the “activity against varroa mites versus compounds (A) and (B)” value (Varroa jacobsoni [3]; varroacidal test) was “significantly better activity against varroa mites”, the “mortality of the treated bees” value (bees [5]) was “about 1%” and the “comparative efficacy against Tropilaelaps clareae” value (Tropilaelaps clareae) was “best product against both mites”. The “Killed organisms in %: bees” value (bees [6]; 0.5% aqueous solution, 5 ml dropped, three times at 4-day intervals, 12 days, natural mortality about 0.5% expected) was 0.4%, the “mortality of the bees during the test” value (bees [6]; compared with expected range and untreated control group) was “exactly within the expected range and does not differ from the mortality of the untreated control group” and the “Killed organisms in %: mites” value (varroa mites [7]) was 91.8%. The Fallen mites (varroa mites [8]; 10 μl sugar solution fed per bee, 30 bees, total mites 35) was 34, the “Mortality rate in % (mites)” value (varroa mites [8]; 10 μl sugar solution fed per bee) was 97% and the “killing of parasitizing mites” value (varroa mites [8]; feeding method in the laboratory) was “killing nearly all of the parasitizing mites”.
